Test results published in PubChem BioAssay AID256 (DTP/NCI, 2004).
“And” between values parts separate entries of the source, which are not always exact repeats. Equal values may be shown once. Inconclusive results and toxic doses are left out.

Test system: CD2F1 mice, L1210 leukemia ip, survival T/C
Assay: NCI In Vivo Anticancer Drug Screen. Data for tumor model L1210 Leukemia (intraperitoneal) in CD2F1 (CDF1) mice
Conditions: endpoint: mean survival time, higher = longer survival
In short: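 Mice carrying a transplanted tumor received test compound or vehicle alone. The value is the measurement in the treated group divided by that in the vehicle-treated control group.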

[1] = dose: 100.0 mg/kg/injection, schedule: Q01DX009 (ip), vehicle: saline
[2] = dose: 100.0 mg/kg/injection, schedule: Q01DX009 (ip), vehicle: saline with Tween-80
[3] = dose: 100.0 mg/kg/injection, schedule: Q04DX003 (ip), vehicle: saline with Tween-80
[4] = dose: 200.0 mg/kg/injection, schedule: Q01DX009 (ip), vehicle: saline with Tween-80
[5] = dose: 200.0 mg/kg/injection, schedule: Q04DX003 (ip), vehicle: saline with Tween-80
[6] = dose: 400.0 mg/kg/injection, schedule: Q01DX009 (ip), vehicle: saline with Tween-80
[7] = dose: 400.0 mg/kg/injection, schedule: Q04DX003 (ip), vehicle: saline with Tween-80
[8] = dose: 25.0 mg/kg/injection, schedule: Q01DX009 (ip), vehicle: saline
[9] = dose: 50.0 mg/kg/injection, schedule: Q01DX009 (ip), vehicle: saline
[10] = dose: 100.0 mg/kg/injection, schedule: Q04DX003 (ip), vehicle: saline
[11] = dose: 200.0 mg/kg/injection, schedule: Q04DX003 (ip), vehicle: saline
[12] = dose: 400.0 mg/kg/injection, schedule: Q04DX003 (ip), vehicle: saline
[13] = dose: 25.0 mg/kg/injection, schedule: Q01DX009 (ip), vehicle: saline with Tween-80
[14] = dose: 50.0 mg/kg/injection, schedule: Q01DX009 (ip), vehicle: saline with Tween-80
[15] = dose: 50.0 mg/kg/injection, schedule: Q04DX003 (ip), vehicle: saline with Tween-80
[16] = dose: 25.0 mg/kg/injection, schedule: Q04DX003 (ip), vehicle: saline with Tween-80

O=c1[nH]c2ccc(Br)cc2c(=O)o1
T/C [1]: 104 % of control
T/C (dose: 200.0 mg/kg/injection, schedule: Q01DX009 (ip), vehicle: saline): 116 % of control
T/C (dose: 400.0 mg/kg/injection, schedule: Q01DX009 (ip), vehicle: saline): 108 % of control

CN(CCl)S(=O)(=O)c1ccccc1
T/C [2]: 100 % of control
T/C [3]: 112 % of control
T/C [4]: 104 % of control
T/C [5]: 101 % of control
T/C [6]: 102 % of control
T/C [7]: 100 % of control

CCN(CC)c1cc(Nc2c3ccc(Cl)cc3nc3cc(Cl)ccc23)ccc1O
T/C [2]: 102 % of control
T/C [3]: 97 % of control
T/C [4]: 104 % of control
T/C [5]: 100 % of control
T/C [7]: 117 % of control

CCOP(=O)(OCC)C(C)c1ccccc1 (stereo not drawn)
T/C [2]: 100 % of control
T/C [4]: 94 % of control

ClC1CN2CCC1CC2 (stereo not drawn)
T/C (dose: 12.5 mg/kg/injection, schedule: Q01DX009 (ip), vehicle: saline): 95 % of control
T/C [8]: 90 % of control and 105 % of control
T/C [9]: 93 % of control and 94 % of control

COc1ccc2ccccc2c1C1/C(=N/O)CCc2ccccc21 (stereo not drawn)
T/C (dose: 12.5 mg/kg/injection, schedule: Q01DX009 (ip), vehicle: other): 98 % of control
T/C (dose: 25.0 mg/kg/injection, schedule: Q01DX009 (ip), vehicle: other): 94 % of control
T/C (dose: 50.0 mg/kg/injection, schedule: Q01DX009 (ip), vehicle: other): 98 % of control
T/C (dose: 100.0 mg/kg/injection, schedule: Q01DX009 (ip), vehicle: other): 98 % of control
T/C (dose: 200.0 mg/kg/injection, schedule: Q01DX009 (ip), vehicle: other): 96 % of control

NC(=O)N/N=C/C(c1ccccc1)c1ccccc1
T/C [2]: 105 % of control
T/C [4]: 94 % of control
T/C [6]: 103 % of control

CCC(C)C(=O)CN(C)c1ccccc1 (stereo not drawn)
T/C [10]: 102 % of control
T/C [11]: 102 % of control
T/C [12]: 100 % of control

c1cc2c3c(c1)nc(CCc1nc4cccc5c4n1CCC5)n3CCC2
T/C [13]: 100 % of control
T/C [14]: 91 % of control
T/C [2]: 92 % of control

COc1cc(C(=O)N2CC3CCC(CC3)C2)cc(OC)c1OC
T/C [3]: 93 % of control
T/C [5]: 96 % of control
T/C [7]: 96 % of control

Clc1ccccc1-c1nc2ccccc2[nH]1
T/C [15]: 98 % of control
T/C [3]: 96 % of control
T/C [5]: 96 % of control

CC1(C)CC23C4COC(=O)C2CCC1C3CC4=O (stereo not drawn)
T/C (dose: 3.12 mg/kg/injection, schedule: Q01DX009 (ip), vehicle: DMSO): 95 % of control
T/C (dose: 6.25 mg/kg/injection, schedule: Q01DX009 (ip), vehicle: DMSO): 96 % of control and 98 % of control
T/C (dose: 12.5 mg/kg/injection, schedule: Q01DX009 (ip), vehicle: DMSO): 90 % of control and 94 % of control
T/C (dose: 25.0 mg/kg/injection, schedule: Q01DX009 (ip), vehicle: DMSO): 94 % of control and 98 % of control
T/C (dose: 50.0 mg/kg/injection, schedule: Q01DX009 (ip), vehicle: DMSO): 104 % of control
T/C (dose: 100.0 mg/kg/injection, schedule: Q01DX009 (ip), vehicle: DMSO): 93 % of control
T/C (dose: 200.0 mg/kg/injection, schedule: Q01DX009 (ip), vehicle: DMSO): 112 % of control

CN1NC(c2ccccc2)C2CN(C3CCCCC3)C(=O)C21O (stereo not drawn)
T/C [3]: 92 % of control
T/C [5]: 88 % of control
T/C [7]: 101 % of control

CC([NH-])C([NH-])O.[Br][Pt+2][Br] (stereo not drawn)
T/C [16]: 169 % of control

O=C(O)c1ccc(O)cc1C(=O)O.[NH-]C1CCCCC1[NH-].[Pt+2]
T/C (dose: 1.17 mg/kg/injection, schedule: Q04DX003 (ip), vehicle: other): 168 % of control
T/C (dose: 9.38 mg/kg/injection, schedule: Q04DX003 (ip), vehicle: other): 194 % of control
T/C (dose: 18.75 mg/kg/injection, schedule: Q04DX003 (ip), vehicle: other): 189 % of control

Nc1cc2[nH]cnc2c([Se])n1
T/C [3]: 101 % of control
T/C [5]: 107 % of control

NC(=O)c1ncc(-c2ccccc2)[nH]c1=O
T/C [10]: 93 % of control
T/C [11]: 98 % of control
T/C [12]: 102 % of control

C1=CCOCOC1
T/C (dose: 12.5 mg/kg/injection, schedule: Q01DX009 (ip), vehicle: saline with Tween-80): 106 % of control
T/C [13]: 96 % of control
T/C [14]: 114 % of control and 102 % of control
T/C [2]: 100 % of control and 103 % of control
T/C [3]: 100 % of control
T/C [4]: 106 % of control
T/C [5]: 118 % of control

N=C(N)SC1c2ccccc2-c2ccc(N)cc21 (stereo not drawn)
T/C [8]: 107 % of control
T/C [9]: 102 % of control
T/C [1]: 109 % of control
T/C [3]: 103 % of control

COc1ccc(CC(N)C(=O)OCc2ccccc2)cc1N(CCCl)CCCl (stereo not drawn)
T/C (dose: 3.0 mg/kg/injection, schedule: Q01DX009 (ip), vehicle: saline): 177 % of control
T/C (dose: 6.0 mg/kg/injection, schedule: Q01DX009 (ip), vehicle: saline): 118 % of control

COc1cc(C=Nc2cccc(F)c2)ccc1N(CCCl)CCCl
T/C (dose: 16.0 mg/kg/injection, schedule: Q01DX015 (ip), vehicle: saline): 157 % of control
T/C (dose: 25.0 mg/kg/injection, schedule: Q01DX001 (ip), vehicle: other): 121 % of control
T/C (dose: 50.0 mg/kg/injection, schedule: Q01DX001 (ip), vehicle: other): 119 % of control

CCOC(=O)CCC(NC(=O)c1ccc(NCc2ccc3nc(N)nc(N)c3c2C)cc1)C(=O)OCC (stereo not drawn)
T/C (dose: 0.01 mg/kg/injection, schedule: Q01DX009 (ip), vehicle: saline + alcohol): 104 % of control
T/C (dose: 0.02 mg/kg/injection, schedule: Q01DX009 (ip), vehicle: saline + alcohol): 116 % of control
T/C (dose: 0.03 mg/kg/injection, schedule: Q01DX009 (ip), vehicle: saline + alcohol): 113 % of control
T/C (dose: 0.06 mg/kg/injection, schedule: Q01DX001 (ip), vehicle: saline + alcohol): 98 % of control and 101 % of control
T/C (dose: 0.06 mg/kg/injection, schedule: Q01DX009 (ip), vehicle: saline + alcohol): 113 % of control
T/C (dose: 0.11 mg/kg/injection, schedule: Q01DX009 (ip), vehicle: saline + alcohol): 110 % of control
T/C (dose: 0.12 mg/kg/injection, schedule: Q01DX001 (ip), vehicle: saline + alcohol): 112 % of control
T/C (dose: 0.13 mg/kg/injection, schedule: Q01DX001 (ip), vehicle: saline + alcohol): 104 % of control
T/C (dose: 0.25 mg/kg/injection, schedule: Q01DX001 (ip), vehicle: saline + alcohol): 121 % of control and 111 % of control
T/C (dose: 1.0 mg/kg/injection, schedule: Q01DX001 (ip), vehicle: saline + alcohol): 122 % of control

C[N+](C)(C)CCS(=O)(=O)[O-]
T/C [10]: 102 % of control
T/C [11]: 100 % of control
T/C [12]: 100 % of control

NC(N)=N/N=C/c1ccc(Cl)c(Cl)c1
T/C (dose: 12.5 mg/kg/injection, schedule: Q04DX003 (ip), vehicle: saline with Tween-80): 105 % of control
T/C [16]: 97 % of control
T/C [15]: 94 % of control

CCCCCCCCCCCCCCCCCCN1C(=O)C2C3CCC(O3)C2C1=O (stereo not drawn)
T/C (dose: 25.0 mg/kg/injection, schedule: Q04DX002 (ip), vehicle: saline with Tween-80): 98 % of control
T/C (dose: 50.0 mg/kg/injection, schedule: Q04DX002 (ip), vehicle: saline with Tween-80): 98 % of control
T/C (dose: 100.0 mg/kg/injection, schedule: Q04DX002 (ip), vehicle: saline with Tween-80): 94 % of control

CC(=O)OCCC(C)Nc1ccnc2cc(Cl)ccc12 (stereo not drawn)
T/C (dose: 10.0 mg/kg/injection, schedule: Q01DX009 (ip), vehicle: saline with Tween-80): 100 % of control
T/C (dose: 20.0 mg/kg/injection, schedule: Q01DX009 (ip), vehicle: saline with Tween-80): 102 % of control
T/C (dose: 40.0 mg/kg/injection, schedule: Q01DX009 (ip), vehicle: saline with Tween-80): 96 % of control
T/C [3]: 100 % of control

COC(=O)CCN(c1ccccc1)c1ccc(C)cc1
T/C [3]: 97 % of control
T/C [5]: 97 % of control
T/C [7]: 97 % of control

O=C1C=CC(=O)N1CO (tested in a mixture with another compound)
T/C [2]: 98 % of control
T/C [4]: 98 % of control
T/C [6]: 93 % of control
